Columns and labels:
L1210-Leukämiezellen = test: Colony formation of L1210 leukaemia cells in soft agar; type: cell-based, Maus; details: colony number vs untreated control, 7 days at 37° C; 1 h incubation or continuous exposure not specified
Source text: Die Bestimmung der zytostatischen Wirksamkeit der hier beschriebenen Verbindungen erfolgte an L1210-Leukämiezellen der Maus. Im einzelnen wurden folgende Testsysteme verwendet:
Diese Methode dient zum Nachweis eines Einflusses der Testsubstanzen auf das Wachstumsverhalten der Zellen über mehrere Generationen (bei einer Zellzykluszeit von 10 - 12 Stunden werden in der Testzeit von 7 Tagen etwa 14 aufeinanderfolgende Generationen beobachtet). Zytostatisch wirksame Substanzen bewirken in diesem Test eine Reduktion der zu beobachtenden Koloniezahl gegenüber einer unbehandelten Kontrolle. Im einzelnen wird der Test wie folgt durchgeführt: Leukämiezellen werden mit unterschiedlichen Konzentrationen von Testsubstanz 1 Stunde bei 37° C inkubiert.
Anschließend werden die Zellen zweimal mit McCoy5A-Medium gewaschen und schließlich in Petrischalen nach Zusatz von 0.3 % Agar ausgegossen (500 Zellen/Platte). Kontrollen werden lediglich mit frischem Medium inkubiert. Anstelle der einstündigen Inkubation werden in manchen Fällen unterschiedliche Konzentrationen und Testsubstanz der oberen Agarschicht zugemischt, um so eine kontinuierliche Exposition der Zellen über die gesamte Inkubationszeit zu erreichen. Nach Erstarren des Agars werden die Platten im Brutschrank 7 Tage bei 37° C inkubiert ( 5 Vol-% CO₂, 95 % relative Luftfeuch tigkeit). Anschließend wird die Anzahl der entstandenen Kolonien mit einem Durchmesser von mehr als 60 µ gezählt. Die Ergebnisse werden angegeben als Koloniezahl in behandelten Agarplatten, in Prozent der unbehandelten Kontrolle. Aus der so erhalten Dosiswirkungskurve wird die IC₅₀ als Maß für die Wirksamkeit der Substanz ermittelt.

L1210 Leukämie der Maus = test: In vivo efficacy of the platinum complexes against L1210 leukaemia of the mouse; design: opt. Dose: unit not given here; details: for opt. Dose: dose with the greatest antitumoural effect, schedule 3 x i.p./i.p.; for T/C % L1210: treatment schedule 3 x i.p./i.p., mean survival time vs control at optimal dose; for LTS (Long Term Survivor): animals alive on day 60 (cured) per group of 6, at optimal dose, 3 x i.p./i.p.
Description: Ascitesflüssigkeit wird unter sterilen Bedingungen DBA2 Mäusen (weiblich, 18 - 20 g) 7 Tage nach Implantation entnommen. Der Ascites wird dreimal mit PBS gewaschen, gezählt und auf eine Zellzahl von 10⁶ in 0.2 ml PBS eingestellt. 10⁶ Zellen, suspendiert in 0.2 ml PBS, werden anschlie-ßend DBF1 Mäusen (weiblich, 18 - 20 g) intraperitoneal injiziert. 6 Tiere pro Gruppe werden für jede Substanz konzentration bzw. als Kontrolle eingesetzt.
• a) Die Tiere werden am Tag 1 und 5 nach Injektion der Testsubstanz gewogen.
Die Dosis, die den größten antitumoralen Effekt (optimale Dosierung) sowie jeweils eine Dosisstufe oberhalb und unterhalb dieser Dosis wurden angegeben. Tiere, die am Tag 60 des Experimentes noch leben, werden als geheilt zusätzlich getrennt aufgeführt.

NMRI-Mäusen = test: Acute toxicity in mice (LD50, Litchfield-Wilcoxon); type: in vivo, Maus; details: 3 x i.p.; survivors counted day 14 after last injection
Description: Zur Ermittlung der akuten Toxizität werden NMRI-Mäusen am Tag 0 unterschiedliche Dosen der Testsubstanz gelöst in 0.5 ml 5 %iger Glucose-Lösung, intraperitoneal injiziert. Kontrollgruppen erhalten lediglich 0.5 ml 5 %ige Glucose-Lösung. Pro Konzentration der Testsubstanz werden 5 Mäuse verwendet. Am Tag 14 nach der letzten Injektion wird die Zahl der überlebenden Mäuse ermittelt und daraus nach der Lichtfield Wilcoxon Methode die LD5, LD50 und LD95 ermittelt.

Structure (SMILES)	IC₅₀ (L1210-Leukämiezellen) [µg/mL]	opt. Dose (L1210 Leukämie der Maus)	T/C % L1210 (L1210 Leukämie der Maus) [%]	LD₅₀ (NMRI-Mäusen) [mg/kg]	LTS (Long Term Survivor) (L1210 Leukämie der Maus)
N.N.[Cl][Pt][Cl] [Cisplatin, reference compound]	0.04	4	157	–	–
CCC(CN)(CN)COC.O=C1[O][Pt][O]C(=O)C12CC2 [Verbindung 1, 1,3-Diamino-2-ethyl-2-methoxymethyl-propan-N,N′-platin(II)-O,O′-cyclopropan-1,1-dicarboxylat]	5.0	50	450	90 to 120	6/6
COCC(C)(CN)CN.O=C([O-])C1(C(=O)[O-])CC1.[Pt+2] [Verbindung 2, 1,3-Diamino-2-methoxymethyl-2-methyl-propan-N,N′-platin(II)-O,O′-cyclopropan-1,1-dicarboxylat]	4.2	–	–	–	–
CCC(CN)(CN)COC.COC1C(=O)[O][Pt][O]C1=O [Verbindung 9, 1,3-Diamino-2-ethyl-2-methoxymethyl-propan-N,N′-platin(II)-O,O′-2-methoxymalonat]	2.35	16	306	60	3/6
CCC(CN)(CN)COC.O=C1C[O][Pt][O]1 [Verbindung 16, 1,3-Diamino-2-ethyl-2-methoxymethyl-propan-N,N′-platin(II)-O,O′-2-hydroxy-acetat]	1.2	15.8	361	–	4/6
COCC(C)(CN)CN.O=C1C[O][Pt][O]1 [Verbindung 17, 1,3-Diamino-2-methoxymethyl-2-methyl-propan-N,N′-platin(II)-O,O′-2-hydroxy-acetat]	1.8	9.5	225	–	1/6
CCC(CN)(CN)COC.CCC1(C)[O][Pt][O]C1=O [Verbindung 22, 1,3-Diamino-2-ethyl-2-methoxymethyl-propan-N,N′-platin(II)-O,O′-(2-hydroxy-2-methyl)-butyrat]	2.9	–	–	90 to 180	–

— patent EP0367974A1, “Cis-complexes with a 1,3-diaminopropane derivative as a ligand, methods for their preparation and pharmaceutical agents containing such complexes” (BEHRINGWERKE Aktiengesellschaft, priority 1988, dated 1990)
